Experimental data as given in patent US20260026529A1, “MATERIALS AND METHODS FOR THE MANUFACTURE OF AN ANIMAL FEED” (In the Bowl Animal Health, Inc., priority 2023, published 2026).
Where a name gives a salt, the structure may show the parent alone. Marks after values point to notes of the source that are not given here.

Experiments:
[1] = Solubility of active ingredients in liquid carriers, transmissivity measurement with a crystallizer multi-reactor
Description: To determine the solubility of various active ingredients that could be incorporated into pet food, each active ingredient may be evaluated in a temperature dependent manner using a crystallizer multi-reactor with transmissivity measurements.
Carrier of interest may be prepared as needed and specific active ingredients may be added to the solvents to form mixtures of the solvent and active. […] If mixing and/or heating fails to provide visual evidence that an active ingredient dissolves in the test solvent carrier no further solubility testing of the active ingredient with the test carrier can be conducted.
For active ingredients that appear to at least partially dissolve in a given carrier, the mixtures can be analyzed by transmissivity measurement using a crystallizer multi-reactor. Prior to the transmissivity measurement using a crystallizer multi-reactor with transmissivity capability, carriers may be prepared, as needed, and subsequently tested using a heating cycle over a range of temperatures. The transmissivity data can be recorded over the temperature ranges and used as a blank or reference in subsequent transmissivity measurements.
Typically, initial samples including the active ingredient of interest and the test carrier are not readily soluble at room temperature and may register low percent transmissivity along with visible observations of insolubilized material. When resulting admixtures are heated at a specific heating rate, the percent transmissivity increases as the active ingredient is solubilized. When the solids are completely dissolved, the transmissivity is measured as 100%. When the resulting heated admixture is subsequently cooled, solids may precipitate at a given temperature and cooling rate, which results in a decrease in percent transmissivity. The temperature and time at which precipitation occurs with a specific admixture provides additional information regarding solubility and the combination of parameters needed for selection to prepare feed with the active ingredient of interest.
Carriers include, refined chicken fat, refined chicken fat including lecithin, refined chicken fat including Tween80, refined chicken fat including triacetin, and triacetin may be used as carrier systems over a range of temperatures, ramp rates, stirring rates, and cooling cycles to evaluate stability.
Admixture experiments may be performed with active ingredients including, e.g., mivorilaner, sarolaner, lotilaner, fluralaner, afoxolaner, spinosad, pyrantel, praziquantel, fenbendazole, diethylcarbamazine, moxidectin, gabapentin and metformin in combination with different test carriers using the methodology described herein. “Apparent solubility” is a term used herein to denote that the admixture may be a true solution, i.e., an admixture in which the active ingredient completely dissolves into the carrier liquid. However, the term “apparent solubility” also can include suspensions and emulsions, for example, which resemble a true solution but are not.

[2] = Solubility of mivorilaner in carriers under isothermal conditions; assay type: physicochemical
Protocol: The solubility of mivorilaner in a number of carriers was also measured under isothermal conditions.

Structure (SMILES) | Measured Concentration ([1]; carrier CF, Up to 60 ° C.) [mg/g] | Time to Achieve Apparent Solubility ([1]; carrier CF, Up to 60 ° C.) | Measured Concentration ([1]; carrier Triacetin, 20-22 ° C.) [mg/g] | Time to Achieve Apparent Solubility ([1]; carrier Chicken Fat + Tween 80, 2.0 mg/g, 40 ° C.) | Effect of the presence of lecithin on solubility ([1]; chicken fat vs chicken fat including 4% (w/w) lecithin, 2-16 mg/g, 0.1° C./minute, 39° C. to 60° C., FIG. 5) | Solubility in a combination of chicken fat and lecithin ([2]; chicken fat and lecithin) | Solubility observation, chicken fat only ([2]; chicken fat only, all experiments)
NCC1(CC(=O)O)CCCCC1 [Gabapentin] | 0 | Insoluble | <1 |  |  |  | 
CN(C)C(=N)N=C(N)N [Metformin-HCI, Metformin HCl] | 0 |  | <1 |  |  |  | 
O=C(CNC(=O)c1sc(C2=NO[C@@](c3cc(Cl)c(F)c(Cl)c3)(C(F)(F)F)C2)c2c1CCC2)NCC(F)F [Mivorilaner] |  |  |  | 1.5** hours | increased mivorilaner solubility | soluble over a wide range of concentrations and temperatures | visible detection of agglomerates was noted in all experiments
